Source: publication PMC12067278, “A responsive living material prepared by diffusion reveals extracellular enzyme activity of cyanobacteria” (Proceedings of the National Academy of Sciences of the …, 2025)

Target: T1, AmiX (Synpcc7942_1548 gene product, putative amidase) (Synechococcus elongatus, UniProt Q31MZ1)
T1 construct: expressed in E. coli BL21, clarified lysate assayed; ORF PCR product ~1,320 bp
T1 sequence (Q31MZ1 1-439 limits assumed): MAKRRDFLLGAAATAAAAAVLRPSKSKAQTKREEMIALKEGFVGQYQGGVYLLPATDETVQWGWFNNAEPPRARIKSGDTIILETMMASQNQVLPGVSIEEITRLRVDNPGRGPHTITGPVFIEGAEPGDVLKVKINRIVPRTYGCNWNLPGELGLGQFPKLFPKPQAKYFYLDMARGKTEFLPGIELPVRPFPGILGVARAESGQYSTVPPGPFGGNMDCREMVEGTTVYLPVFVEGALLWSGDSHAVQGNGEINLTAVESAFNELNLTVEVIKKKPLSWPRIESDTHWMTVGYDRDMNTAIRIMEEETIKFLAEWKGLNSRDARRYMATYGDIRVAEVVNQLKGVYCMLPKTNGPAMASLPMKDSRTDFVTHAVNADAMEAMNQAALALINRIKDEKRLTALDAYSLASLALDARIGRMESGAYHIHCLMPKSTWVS
Assay: NBD-Cl amine-detection fluorescence assay ([…] nm), E. coli lysate
Assay type: biochemical
Settings: 50 mM potassium phosphate pH 7.5, 2.5 mM NIPAm (50 uL of 50 mM in 1 mL), 20 h, high lysate background

C=CC(=O)NC(C)C [NIPAm, N-isopropylacrylamide]
NBD-Cl amine-detection fluorescence assay (485/538 nm), E. coli lysate: the lysate containing both the S. elongatus amidase and NIPAm produced significantly more fluorescence
